Source: patent US6809065B2, “Herbicide containing substituted pyrazole derivative as active ingredient” (SDS Biotech K.K., priority 2001, dated 2004)

Assays:
[1] = system: wheat (Triticum aestivum); assay: Upland soil treatment (Test Example 2), crop; format: in vivo; details: soil surface treatment next day after sowing, 1 kg active ingredient per hectare, evaluated 21st day, lower index = higher safety
How it was run: (§1)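 Pre-emergence soil treatment: day after sowing, WP formulation diluted in water, applied uniformly to soil surface at 1 kg a.i./ha. Seeds sown ~1 cm deep in upland soil. Visual index read 21 d after application (weeds: high = effective; crop: low = safe).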

soybean (Glycine max) [2] = assay: Upland soil treatment (Test Example 2), crop; format: in vivo; details: soil surface treatment next day after sowing, 1 kg active ingredient per hectare, evaluated 21st day, lower index = higher safety
How it was run: as §1

Echinochloa spp. = assay: Paddy field treatment (Test Example 3); format: in vivo, Echinochloa crusgalli; details: paddy pot, submerged 4 cm, dropped on water surface 10th day after transplantation, 1 kg active ingredient per hectare, evaluated 21st day
How it was run: (§2)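 Pot test, flooded paddy soil (4 cm water); weeds sown, 2-leaf rice (Koshihikari) transplanted. Day 10 post-transplant: WP dropped on water, 1 kg a.i./ha. Score index at 21 d after application; higher = stronger herbicidal effect.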

Stellaria media [3] = assay: Upland field foliage treatment (Test Example 1); format: in vivo; details: foliage treatment 14th day after sowing, wettable powder, 1 kg active ingredient per hectare, evaluated 21st day after application
How it was run: (§3)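 Read-out is a visual index scored 21 days after treatment. Higher values mean more herbicidal effect on weeds and lower values mean better crop safety. Plants were raised from seed in upland soil and received a leaf-surface spray of 1 kg active ingredient per hectare at 14 days.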

Setaria viridis [4] = assay: Upland field foliage treatment (Test Example 1); format: in vivo; details: foliage treatment 14th day after sowing, wettable powder, 1 kg active ingredient per hectare, evaluated 21st day after application
How it was run: as §3

Digitaria adscendens [5] = assay: Upland field foliage treatment (Test Example 1); format: in vivo; details: foliage treatment 14th day after sowing, wettable powder, 1 kg active ingredient per hectare, evaluated 21st day after application
How it was run: as §3

Chenopodium album [6] = assay: Upland field foliage treatment (Test Example 1); format: in vivo; details: foliage treatment 14th day after sowing, wettable powder, 1 kg active ingredient per hectare, evaluated 21st day after application
How it was run: as §3

[7] = system: rice (Oryza sative, variety: Koshihikari); assay: Paddy field treatment (Test Example 3), crop; format: in vivo, Oryza sativa; details: transplanted rice two-leaf period, water surface treatment 10th day after transplantation, 1 kg active ingredient per hectare, evaluated 21st day, lower index = higher safety
How it was run: as §2

Monochoria vaginalis = assay: Paddy field treatment (Test Example 3); format: in vivo; details: paddy pot, submerged 4 cm, dropped on water surface 10th day after transplantation, 1 kg active ingredient per hectare, evaluated 21st day
How it was run: as §2

Ammannia multiflora = assay: Paddy field treatment (Test Example 3); format: in vivo; details: paddy pot, submerged 4 cm, dropped on water surface 10th day after transplantation, 1 kg active ingredient per hectare, evaluated 21st day
How it was run: as §2

Scirpus juncoides = assay: Paddy field treatment (Test Example 3); format: in vivo; details: paddy pot, submerged 4 cm, dropped on water surface 10th day after transplantation, 1 kg active ingredient per hectare, evaluated 21st day
How it was run: as §2

[8] = system: wheat (Triticum aestivum); assay: Upland field foliage treatment (Test Example 1), crop; format: in vivo; details: foliage treatment 14th day after sowing, 1 kg active ingredient per hectare, evaluated 21st day, lower index = higher safety
How it was run: as §3

soybean (Glycine max) [9] = assay: as above; format: in vivo; details: foliage treatment 14th day after sowing, 1 kg active ingredient per hectare, evaluated 21st day, lower index = higher safety
How it was run: as §3

Stellaria media [10] = assay: Upland soil treatment (Test Example 2); format: in vivo; details: soil surface treatment next day after sowing, wettable powder, 1 kg active ingredient per hectare, evaluated 21st day after application
How it was run: as §1

Setaria viridis [11] = assay: Upland soil treatment (Test Example 2); format: in vivo; details: soil surface treatment next day after sowing, wettable powder, 1 kg active ingredient per hectare, evaluated 21st day after application
How it was run: as §1

Digitaria adscendens [12] = assay: Upland soil treatment (Test Example 2); format: in vivo; details: soil surface treatment next day after sowing, wettable powder, 1 kg active ingredient per hectare, evaluated 21st day after application
How it was run: as §1

Chenopodium album [13] = assay: Upland soil treatment (Test Example 2); format: in vivo; details: soil surface treatment next day after sowing, wettable powder, 1 kg active ingredient per hectare, evaluated 21st day after application
How it was run: as §1

Row | Structure (SMILES) | Herbicidal activity Triticum aestivum [1] | Herbicidal activity Glycine max (soybean (Glycine max) [2]) | Herbicidal activity Echinochloa spp. (Echinochloa spp.) | Herbicidal activity Stellaria media (Stellaria media [3]) | Herbicidal activity Setaria viridis (Setaria viridis [4]) | Herbicidal activity Digitaria adscendens (Digitaria adscendens [5]) | Herbicidal activity Chenopodium album (Chenopodium album [6]) | Herbicidal activity Oryza sativa [7] | Herbicidal activity Monochoria vaginalis (Monochoria vaginalis) | Herbicidal activity Ammannia multiflora (Ammannia multiflora) | Herbicidal activity Scirpus juncoides (Scirpus juncoides) | Herbicidal activity Triticum aestivum [8] | Herbicidal activity Glycine max (soybean (Glycine max) [9]) | Herbicidal activity Stellaria media (Stellaria media [10]) | Herbicidal activity Setaria viridis (Setaria viridis [11]) | Herbicidal activity Digitaria adscendens (Digitaria adscendens [12]) | Herbicidal activity Chenopodium album (Chenopodium album [13])
1 | CCc1c(Cl)c(-c2ccccc2)nn1CC(=COC)C(=O)OC [Compound 39] | 0 (herbicidal effect of not less than 0% by weight and less than 10% by weight) | 0 (herbicidal effect of not less than 0% by weight and less than 10% by weight) | 4 (herbicidal effect of not less than 70% by weight and less than 90% by weight) | 5 (herbicidal effect of not less than 90% by weight) | 4 (herbicidal effect of not less than 70% by weight and less than 90% by weight) | 4 (herbicidal effect of not less than 70% by weight and less than 90% by weight) | 5 (herbicidal effect of not less than 90% by weight) | 0 (herbicidal effect of not less than 0% by weight and less than 10% by weight) | 3 (herbicidal effect of not less than 50% by weight and less than 70% by weight) | 3 (herbicidal effect of not less than 50% by weight and less than 70% by weight) | 4 (herbicidal effect of not less than 70% by weight and less than 90% by weight) | 0 (herbicidal effect of not less than 0% by weight and less than 10% by weight) | 1 (herbicidal effect of not less than 10% by weight and less than 30% by weight) | 4 (herbicidal effect of not less than 70% by weight and less than 90% by weight) | 4 (herbicidal effect of not less than 70% by weight and less than 90% by weight) | 4 (herbicidal effect of not less than 70% by weight and less than 90% by weight) | 4 (herbicidal effect of not less than 70% by weight and less than 90% by weight)
2 | CCc1cc(-c2ccccc2)nn1CC(=COC)C(=O)OC [Compound 36] | 0 (herbicidal effect of not less than 0% by weight and less than 10% by weight) | 0 (herbicidal effect of not less than 0% by weight and less than 10% by weight) | 3 (herbicidal effect of not less than 50% by weight and less than 70% by weight) | 5 (herbicidal effect of not less than 90% by weight) | 5 (herbicidal effect of not less than 90% by weight) | 4 (herbicidal effect of not less than 70% by weight and less than 90% by weight) | 5 (herbicidal effect of not less than 90% by weight) | 0 (herbicidal effect of not less than 0% by weight and less than 10% by weight) | 3 (herbicidal effect of not less than 50% by weight and less than 70% by weight) | 3 (herbicidal effect of not less than 50% by weight and less than 70% by weight) | 3 (herbicidal effect of not less than 50% by weight and less than 70% by weight) | 1 (herbicidal effect of not less than 10% by weight and less than 30% by weight) | 1 (herbicidal effect of not less than 10% by weight and less than 30% by weight) | 4 (herbicidal effect of not less than 70% by weight and less than 90% by weight) | 4 (herbicidal effect of not less than 70% by weight and less than 90% by weight) | 4 (herbicidal effect of not less than 70% by weight and less than 90% by weight) | 4 (herbicidal effect of not less than 70% by weight and less than 90% by weight)
3 | COC=C(Cn1nc(-c2ccccc2)c(C)c1Cl)C(=O)OC [Compound 45] | 0 (herbicidal effect of not less than 0% by weight and less than 10% by weight) | 0 (herbicidal effect of not less than 0% by weight and less than 10% by weight) | 4 (herbicidal effect of not less than 70% by weight and less than 90% by weight) | 5 (herbicidal effect of not less than 90% by weight) | 4 (herbicidal effect of not less than 70% by weight and less than 90% by weight) | 4 (herbicidal effect of not less than 70% by weight and less than 90% by weight) | 5 (herbicidal effect of not less than 90% by weight) | 0 (herbicidal effect of not less than 0% by weight and less than 10% by weight) | 5 (herbicidal effect of not less than 90% by weight) | 4 (herbicidal effect of not less than 70% by weight and less than 90% by weight) | 4 (herbicidal effect of not less than 70% by weight and less than 90% by weight) | 0 (herbicidal effect of not less than 0% by weight and less than 10% by weight) | 1 (herbicidal effect of not less than 10% by weight and less than 30% by weight) | 4 (herbicidal effect of not less than 70% by weight and less than 90% by weight) | 4 (herbicidal effect of not less than 70% by weight and less than 90% by weight) | 4 (herbicidal effect of not less than 70% by weight and less than 90% by weight) | 4 (herbicidal effect of not less than 70% by weight and less than 90% by weight)
4 | COC=C(Cn1nc(-c2cccc(Cl)c2)c(Cl)c1SC)C(=O)OC [Compound 42] | 0 (herbicidal effect of not less than 0% by weight and less than 10% by weight) | 0 (herbicidal effect of not less than 0% by weight and less than 10% by weight) | 3 (herbicidal effect of not less than 50% by weight and less than 70% by weight) | 4 (herbicidal effect of not less than 70% by weight and less than 90% by weight) | 4 (herbicidal effect of not less than 70% by weight and less than 90% by weight) | 4 (herbicidal effect of not less than 70% by weight and less than 90% by weight) | 4 (herbicidal effect of not less than 70% by weight and less than 90% by weight) | 0 (herbicidal effect of not less than 0% by weight and less than 10% by weight) | 3 (herbicidal effect of not less than 50% by weight and less than 70% by weight) | 3 (herbicidal effect of not less than 50% by weight and less than 70% by weight) | 3 (herbicidal effect of not less than 50% by weight and less than 70% by weight) | 0 (herbicidal effect of not less than 0% by weight and less than 10% by weight) | 0 (herbicidal effect of not less than 0% by weight and less than 10% by weight) | 4 (herbicidal effect of not less than 70% by weight and less than 90% by weight) | 4 (herbicidal effect of not less than 70% by weight and less than 90% by weight) | 4 (herbicidal effect of not less than 70% by weight and less than 90% by weight) | 4 (herbicidal effect of not less than 70% by weight and less than 90% by weight)
